Assay results published in ChEMBL document CHEMBL1128882, “Novel lignan derivatives as selective inhibitors of DNA topoisomerase II” (1995).
The source made the active and inactive calls. No cut-off for these calls is given here.

Experiments:
[1] = target: T1, DNA topoisomerase 1 (Homo sapiens) (UniProt P11387); assay: In vitro inhibition of DNA topoisomerase I activity (ATP-independent DNA relaxation) at a concentration of 50 uM
T1 sequence (whole entry): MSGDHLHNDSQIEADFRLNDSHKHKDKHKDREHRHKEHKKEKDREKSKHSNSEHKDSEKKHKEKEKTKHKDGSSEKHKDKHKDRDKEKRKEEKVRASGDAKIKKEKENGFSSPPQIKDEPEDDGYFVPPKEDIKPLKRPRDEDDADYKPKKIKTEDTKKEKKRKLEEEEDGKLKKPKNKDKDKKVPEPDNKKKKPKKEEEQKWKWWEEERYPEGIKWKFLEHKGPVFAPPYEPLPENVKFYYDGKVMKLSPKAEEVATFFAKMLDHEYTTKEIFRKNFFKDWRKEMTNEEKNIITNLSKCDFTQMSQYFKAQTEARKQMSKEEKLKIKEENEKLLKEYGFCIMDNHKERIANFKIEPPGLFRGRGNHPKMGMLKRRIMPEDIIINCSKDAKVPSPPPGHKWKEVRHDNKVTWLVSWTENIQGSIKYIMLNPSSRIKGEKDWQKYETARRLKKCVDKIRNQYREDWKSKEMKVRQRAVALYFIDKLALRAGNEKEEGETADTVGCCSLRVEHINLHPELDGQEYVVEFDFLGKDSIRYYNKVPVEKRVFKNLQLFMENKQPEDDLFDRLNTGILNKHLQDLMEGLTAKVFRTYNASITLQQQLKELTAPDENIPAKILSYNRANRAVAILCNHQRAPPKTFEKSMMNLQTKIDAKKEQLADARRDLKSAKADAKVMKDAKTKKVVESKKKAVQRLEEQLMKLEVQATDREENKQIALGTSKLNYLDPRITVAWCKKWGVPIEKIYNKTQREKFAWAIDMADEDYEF

[2] = target: DNA topoisomerase 2-beta (Homo sapiens) (UniProt Q02880); assay: In vitro inhibition of DNA topoisomerase II activity (DNA unknotting) at a concentration of 50 uM
KB [3] = assay: In vitro cellular protein-DNA complex formation at a concentration of 50 uM; no activity; format: functional, cell-based; conditions: Homo sapiens
KB [4] = assay: In vitro topoisomerase II -DNA complex formation at a concentration of 50 uM; no activity; format: functional, cell-based; conditions: Homo sapiens
KB [5] = assay: In vitro topoisomerase II -DNA complex formation at a concentration of 1 uM; no activity; format: functional, cell-based; conditions: Homo sapiens
[6] = target: T1, DNA topoisomerase 1 (Homo sapiens); assay: In vitro inhibition of DNA topoisomerase I activity (ATP-independent DNA relaxation) at a concentration of 50 uM; no activity
KB [7] = assay: In vitro topoisomerase II -DNA complex formation at a concentration of 10 uM; no activity; format: functional, cell-based; conditions: Homo sapiens
KB [8] = assay: In vitro topoisomerase II -DNA complex formation at a concentration of 100 uM; no activity; format: functional, cell-based; conditions: Homo sapiens
KB [9] = assay: In vitro cellular protein-DNA complex formation at a concentration of 50 uM; format: functional, Homo sapiens
KB [10] = assay: In vitro topoisomerase II -DNA complex formation at a concentration of 50 uM; format: functional, Homo sapiens

DNA topoisomerase 2-beta (Homo sapiens), sequence (Q02880 whole entry): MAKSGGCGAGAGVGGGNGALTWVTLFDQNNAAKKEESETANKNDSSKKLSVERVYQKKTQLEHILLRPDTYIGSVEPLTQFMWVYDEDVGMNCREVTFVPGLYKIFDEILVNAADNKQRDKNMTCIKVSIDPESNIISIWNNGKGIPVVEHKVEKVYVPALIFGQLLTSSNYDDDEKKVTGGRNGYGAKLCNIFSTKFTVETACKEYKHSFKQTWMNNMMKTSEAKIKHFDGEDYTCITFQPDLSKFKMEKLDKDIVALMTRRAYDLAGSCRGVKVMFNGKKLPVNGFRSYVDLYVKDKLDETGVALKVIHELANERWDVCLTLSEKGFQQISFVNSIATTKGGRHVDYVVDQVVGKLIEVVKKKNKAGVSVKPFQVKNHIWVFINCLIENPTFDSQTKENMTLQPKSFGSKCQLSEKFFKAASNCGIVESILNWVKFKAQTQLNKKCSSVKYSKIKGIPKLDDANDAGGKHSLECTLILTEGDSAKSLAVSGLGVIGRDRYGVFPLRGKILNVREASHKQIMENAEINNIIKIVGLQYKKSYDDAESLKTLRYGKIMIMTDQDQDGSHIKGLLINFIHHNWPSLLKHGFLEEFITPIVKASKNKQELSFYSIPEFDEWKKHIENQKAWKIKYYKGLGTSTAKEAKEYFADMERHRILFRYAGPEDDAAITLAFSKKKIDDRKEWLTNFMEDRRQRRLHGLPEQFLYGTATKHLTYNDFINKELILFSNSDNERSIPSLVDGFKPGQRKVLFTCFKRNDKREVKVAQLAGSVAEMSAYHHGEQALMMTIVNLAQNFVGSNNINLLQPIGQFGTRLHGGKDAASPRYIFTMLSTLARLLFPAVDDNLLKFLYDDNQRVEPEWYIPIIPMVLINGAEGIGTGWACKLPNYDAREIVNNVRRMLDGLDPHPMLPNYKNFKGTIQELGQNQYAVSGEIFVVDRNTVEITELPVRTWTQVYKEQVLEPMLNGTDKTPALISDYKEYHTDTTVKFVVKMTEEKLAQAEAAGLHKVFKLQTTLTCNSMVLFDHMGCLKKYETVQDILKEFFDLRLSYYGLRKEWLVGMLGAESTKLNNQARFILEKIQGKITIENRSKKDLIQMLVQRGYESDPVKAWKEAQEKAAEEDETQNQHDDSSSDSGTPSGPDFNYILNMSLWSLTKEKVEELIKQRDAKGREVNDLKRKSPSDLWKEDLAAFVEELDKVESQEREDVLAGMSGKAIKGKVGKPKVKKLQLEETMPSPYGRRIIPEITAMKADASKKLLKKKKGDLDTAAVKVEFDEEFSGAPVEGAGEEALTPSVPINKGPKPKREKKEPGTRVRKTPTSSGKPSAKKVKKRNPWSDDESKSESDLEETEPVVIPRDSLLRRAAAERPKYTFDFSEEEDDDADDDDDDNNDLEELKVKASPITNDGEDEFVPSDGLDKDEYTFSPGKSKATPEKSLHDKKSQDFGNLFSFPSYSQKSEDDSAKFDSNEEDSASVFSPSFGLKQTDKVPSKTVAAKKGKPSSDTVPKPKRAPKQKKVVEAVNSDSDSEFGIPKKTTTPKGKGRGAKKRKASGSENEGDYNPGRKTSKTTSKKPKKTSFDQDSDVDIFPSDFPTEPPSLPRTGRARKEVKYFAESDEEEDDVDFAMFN

SMILES | inhibition [1] | inhibition [2] | Complex formation (KB [3]) | Complex formation (KB [4]) | Complex formation (KB [5]) | inhibition [6] | Complex formation (KB [7]) | Complex formation (KB [8]) | Complex formation (KB [9]) | Complex formation (KB [10])
O=C(O[C@H](Cc1ccc(O)c(O)c1)C(=O)O)C1=Cc2cc(O)c(O)cc2[C@H](c2ccc(O)c(O)c2)[C@H]1C(=O)O[C@H](Cc1ccc(O)c(O)c1)C(=O)O | 100% | 100% | No activity | No activity |  |  |  |  |  | 
O=C(O[C@@H]1C[C@](O)(C(=O)O)C[C@@H](O)[C@H]1O)C1=Cc2cc(O)c(O)cc2[C@H](c2ccc(O)c(O)c2)[C@H]1C(=O)O[C@@H]1C[C@](O)(C(=O)O)C[C@@H](O)[C@H]1O |  | 100% | No activity | No activity | No activity | inactive | No activity | No activity |  | 
O=C(O)C1=Cc2cc(O)c(O)cc2[C@@H](c2ccc(O)c(O)c2)[C@@H]1C(=O)O | 100% | 100% |  |  |  |  |  |  |  | 
O=C1OC(c2ccc(O)c(O)c2)C2C(=O)OC(c3ccc(O)c(O)c3)C12 (stereo not drawn) | 100% | 100% |  |  |  |  |  |  |  | 
COc1cc([C@@H]2c3cc4c(cc3[C@@H](O[C@@H]3O[C@@H]5CO[C@@H](C)O[C@H]5[C@H](O)[C@H]3O)[C@H]3COC(=O)[C@H]23)OCO4)cc(OC)c1O [ETOPOSIDE] |  |  |  |  |  | inactive |  |  | 100% | 100%
O=C(O[C@H](Cc1ccc(O)c(O)c1)C(=O)O)C1=Cc2cc(O)c(O)cc2[C@@H](c2ccc(O)c(O)c2)[C@@H]1C(=O)O[C@H](Cc1ccc(O)c(O)c1)C(=O)O | 100% | 100% | No activity | No activity |  |  |  |  |  | 
O=C(O[C@@H]1C[C@](O)(C(=O)O)C[C@@H](O)[C@H]1O)C1=Cc2cc(O)c(O)cc2[C@@H](c2ccc(O)c(O)c2)[C@@H]1C(=O)O[C@@H]1C[C@](O)(C(=O)O)C[C@@H](O)[C@H]1O |  | 100% | No activity | No activity | No activity | inactive | No activity | No activity |  | 
COC(=O)C1=Cc2cc(O)c(O)cc2[C@@H](c2ccc(O)c(O)c2)[C@@H]1C(=O)OC |  | 100% | No activity | No activity |  | inactive |  |  |  | 
